The assay addresses T1, HIV protease (Human immunodeficiency virus type 1 group M subtype B, UniProt P03366).
T1 construct: made in house; host or cells: Escherichia coli
The assay is described as follows: Assay for Inhibition of Microbial Expressed Vital Protease (protease expressed in Eschericia coli, peptide substrate, HPLC of products). The assay is classed as biochemical. The note with it: peptide substrate Val-Ser-Gln-Asn-(betanapthyl)Ala-Pro-Ile-Val 0.5 mg/mL; 50 mM Na acetate, pH 5.5, 30° C., 1 hour; 15 ul of 0.33 nM protease. On the procedure: Assay for Inhibition of Microbial Expressed Vital Protease
Inhibition studies of the reaction of the protease expressed in Eschericia coli with a peptide substrate Val-Ser-Gln-Asn-(betanapthyl)Ala-Pro-Ile-Val, 0.5 mg/mL at the time the reaction is initiated! were in 50 mM Na acetate, p H 5.5, at 30° C. for 1 hour. Various concentrations of inhibitor in 1.0 ul DMSO were added to 25 ul of the peptide solution in water. The reaction is initiated by the addition of 15 ul of 0.33 nM protease (0.11 ng) in a solution of 0.133M Na acetate pH 5.5 and 0.1% bovine serum albumin. The reaction was quenched with 160 ul of 5% phosphoric acid. Products of the reaction were separated by HPLC (VYDAC wide pore 5 cm C-18 reverse phase, acetonitrile gradient, 0.1% phosphoric acid). The extent of inhibition of the reaction was determined from the peak heights of the products.

Structures are written as SMILES.

As to `CC(C)(C)CC(=O)C[C@@H](CC1CCCCC1)[C@@H](O)C[C@@H](Cc1ccccc1)C(=O)N[C@H]1c2ccccc2C[C@H]1O` [Compound B, N-(2(R)-hydroxy-1(S)-indanyl)-5(R)-cyclohexylmethyl-9,9-dimethyl-4(S)-hydroxy-7-oxo-2(R)-phenylmethyl decaneamide], the half-maximal inhibitory concentration (IC50) was in the range of 0.0115 to 0.058 µM. To `CCCCC(=O)C[C@@H](CC1CCCCC1)[C@@H](O)C[C@@H](Cc1ccccc1)C(=O)N[C@H]1c2ccccc2C[C@H]1O` [Compound A, N-(2(R)-hydroxy-1(S)-indanyl)-5(R)-cyclohexylmethyl-4(S)-hydroxy-7-oxo-2(R) -phenylmethyl undecaneamide] belongs 0.0115 to 0.058 µM.

The values above are taken from US5502053A, “HIV protease inhibitor compounds” (Merck & Co., Inc., priority 1994, dated 1996).
